IC50 data for 38 compounds are collected here from US10160748B2 (AbbVie Inc., priority 2015, dated 2018).

By IC50 is commonly meant the concentration at which inhibition is half-maximal.

This assay deals with TNFα trimer (Homo sapiens, UniProt P01375). The assay can be described thus: TNFα FP Competitive Binding Assay. To be noted: FP binding assay; 20 nM TNFα trimer, 1 nM OregonGreen488 probe; read-out: TNF IC50. The procedure: TNFα FP Competitive Binding Assay
• 1. Assay Buffer: Prepare 1× Assay Buffer (Water with 47 mM HEPES, 47 mM NaCl, 0.9 mM EDTA, 0.0071% Triton X-100) by adding 25 mL of 1 M HEPES, 5 mL of 5 M NaCl, 1 mL of 0.5 M EDTA, and 375 μL of a 10% Triton X-100 stock to a fresh 500 mL bottle of water. • 2. Assay Mixture: Prepare fresh Assay Mixture containing 20 nM TNFα trimer (60 nM protein) and 1 nM 2′,7′-difluoro-3′,6′-dihydroxy-N-(2-(2-(2-((4-(isoquinolin-8-yl)-3-(4-(isoquinolin-8-yl)phenethoxy)benzyl)oxy)ethoxy)ethoxy)ethyl)-3-oxo-3H-spiro[isobenzofuran-1,9′-xanthene]-5-carboxamide probe in 1× Assay Buffer. Compound Plate Preparation Manual 12-Point 1:3 Dilution Plates: (384 Well Polypropylene Plates)
Top concentration of compounds, 10 mM in DMSO, dispensed in rows A-O in columns 1 and 13. Compounds are serially diluted 1:3 with DMSO in columns 2-12 or 14-24 using a 16-channel Matrix pipettor. Plates stored at −20° C.
Discovery Preps 12-Point 1:3 Dilution Plates: (384 Well Assay Plates)
Top concentration, 5 mM in DMSO, of compounds placed in rows A-O in columns 1 and 13. Compounds are serially diluted 1:3 with DMSO in columns 2-12 or 14-24. Compound solutions are dispensed into replicate assay plates at 410 nL per well. Plates stored at 4° C.
TNFα FP Competitive Binding Assay Protocol
• 1. Compound plates warmed to rt. • 2. Fresh Assay Mixture is prepared. • 3. Assay Mixture (20 μL) is dispensed each well of 384 assay plates using a Thermo Multidrop Combi or 16-channel Matrix pipettor. If Manual 12-point 1:3 Dilution Plates are to be tested, Assay Mix is dispensed into empty plates. Discovery Preps 12-point 1:3 Dilution Plates already contain 410 nL compound solution in DMSO. • 4. For Manual 12-point 1:3 Dilution Plates, 0.7 μL is manually transferred using a 16-channel Matrix pipettor to replicate assay plates containing 20 μL Assay Mixture for a final top compound concentration of 338 μM (3.4% DMSO). • 5. For Discovery Preps 12-point 1:3 Dilution Plates, 20 μL Assay Mixture added the 410 nL compound solution already in the plates yields a final top compound concentration of 100 μM (2.0% DMSO). • 6. Background subtraction controls are wells P1-P8 containing only Assay Buffer. The low % inhibition controls are wells P9-P16 containing only Assay Mix. The high % inhibition are wells P17-P24 containing only 1 nM 2′,7′-difluoro-3′,6′-dihydroxy-N-(2-(2-(2-((4-(isoquinolin-8-yl)-3-(4-(isoquinolin-8-yl)phenethoxy)benzyl)oxy)ethoxy)ethoxy)ethyl)-3-oxo-3H-spiro[isobenzofuran-1,9′-xanthene]-5-carboxamide probe in 1× Assay Buffer. • 7. Plates are incubated at rt for 18-24 h in 37° C. incubator (CO2 is off). • 8. Prior to reading the assay, the plates are placed in a dark cabinet to equilibrate at rt for one hour. • 9. Background-subtracted fluorescence polarization (mP) is measured using a PerkinElmer Envision plate reader. • 10. Raw data is entered into Assay Explorer and dose-response curves are generated using a variable slope curve. Supplies, Materials, and Reagents

TNFα trimer, sequence (P01375 77-233 limits assumed): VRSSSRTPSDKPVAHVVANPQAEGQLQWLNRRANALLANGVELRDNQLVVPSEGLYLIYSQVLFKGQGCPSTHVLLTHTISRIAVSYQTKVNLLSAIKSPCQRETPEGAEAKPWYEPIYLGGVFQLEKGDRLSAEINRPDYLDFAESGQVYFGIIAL

Consider `Cc1ccc(OC(F)F)c(Cn2c3cc(-c4cnc(N5C[C@@H]6CNC(=O)[C@@H]6C5)nc4)ccc3c(=O)n2C)c1` (racemic) [Example 20.3], for which the IC50 was in the range of 1000 to 10000 nM. As to `Cn1c(=O)c2ccc(-c3cnc(C(C)(C)O)nc3)cc2n1Cc1cc([C@H]2CC[C@@H](C#N)C2)ccc1OC(F)F` (racemic) [Example 96, rac-(R,3S)-3-(4-(Difluoromethoxy)-3-((6-(2-(2-hydroxypropan-2-yl)pyrimidin-5-yl)-2-methyl-3-oxo-2,3-dihydro-1H-indazol-1-yl)methyl)phenyl)cyclopentane-1-carbonitrile], the IC50 fell in the range of 1000 to 10000 nM.

Take `Cn1c(=O)c2ccc(-c3cnc(C(C)(C)O)nc3)cc2n1Cc1cc([C@H]2CC[C@@H](C#N)C2)ccc1OC(F)F` (racemic) [Example 97]: the IC50 is below 1000 nM.

For the compound `Cc1ccc(OC(F)F)c(Cn2c3cc(-c4cnn5c(C(C)O)cnc5c4)ccc3c(=O)n2C)c1` (racemic) [Example 106, 1-(2-(Difluoromethoxy)-5-methylbenzyl)-6-(3-(1-hydroxyethyl)imidazo[1,2-b]pyridazin-7-yl)-2-methyl-1H-indazol-3(2H)-one], the IC50 is below 1000 nM. Consider `Cn1c(=O)c2ccc(-c3cnc(C(C)(C)O)nc3)cc2n1Cc1cc([C@@H]2CCC[C@@H]2C#N)ccc1OC(F)F` (relative stereo) [Example 112, 2-(4-(Difluoromethoxy)-3-((6-(2-(2-hydroxypropan-2-yl)pyrimidin-5-yl)-2-methyl-3-oxo-2,3-dihydro-1H-indazol-1-yl)methyl)phenyl)cyclopentanecarbonitrile], for which the IC50 was 1000 to 10000 nM. As for `Cn1c(=O)c2ccc(-c3cnc(N4CCN5C(=O)NC[C@@H]5C4)nc3)cc2n1Cc1ccccc1OC(F)F` (single isomer, unassigned) [Example 6], the IC50 was below 1000 nM.

In the case of `Cn1c(=O)c2ccc(-c3cnc(N4CCN5C(=O)NC[C@H]5C4)nc3)cc2n1Cc1ccccc1OC(F)F` (single isomer, unassigned) [Example 7], the IC50 is below 1000 nM.

Take `Cc1ccc(OC(F)F)c(Cn2c3cc(-c4cnc(N5CCN6C(=O)NCC6C5)nc4)ccc3c(=O)n2C)c1` (single isomer, unassigned) [Example 8]: the half-maximal inhibitory concentration (IC50) was below 1000 nM. For `Cn1c(=O)c2ccc(-c3cnc(N[C@H]4CCNC(=O)C4)nc3)cc2n1Cc1cc(CO)ccc1OC(F)F` (single isomer, unassigned) [Example 25], the IC50 was below 1000 nM. Take `Cn1c(=O)c2ccc(-c3cnc(N[C@@H]4CCNC(=O)C4)nc3)cc2n1Cc1cc(CO)ccc1OC(F)F` (single isomer, unassigned) [Example 26]: the IC50 is below 1000 nM. Regarding `CN1CC[C@H](Nc2ncc(-c3ccc4c(=O)n(C)n(Cc5cc(CO)ccc5OC(F)F)c4c3)cn2)CC1=O` (single isomer, unassigned) [Example 27], the IC50 lay in the range of 1000 to 10000 nM. On to `CN1CC[C@@H](Nc2ncc(-c3ccc4c(=O)n(C)n(Cc5cc(CO)ccc5OC(F)F)c4c3)cn2)CC1=O` (single isomer, unassigned) [Example 28], for which the IC50 was below 1000 nM. In the case of `CC(=O)N1CCN(c2ncc(-c3ccc4c(=O)n(C)n(Cc5cc(C)ccc5OC(F)F)c4c3)cn2)C[C@H]1C` (single isomer, unassigned) [Example 54], the IC50 is below 1000 nM. As for `CC(=O)N1CCN(c2ncc(-c3ccc4c(=O)n(C)n(Cc5cc(C)ccc5OC(F)F)c4c3)cn2)C[C@@H]1C` (single isomer, unassigned) [Example 55], the IC50 was below 1000 nM.

In the case of `C[C@@H]1CN(c2ncc(-c3ccc4c(=O)n(C)n([C@@H](C)c5c(F)cccc5F)c4c3)cn2)CCN1C(=O)CO` (single isomer, unassigned) [Example 58], the IC50 was below 1000 nM. Consider `C[C@@H]1CN(c2ncc(-c3ccc4c(=O)n(C)n([C@@H](C)c5ccccc5F)c4c3)cn2)CCN1C(=O)CO` (single isomer, unassigned) [Example 85], for which the IC50 was below 1000 nM. As to `C[C@@H]1CN(c2ncc(-c3ccc4c(=O)n(C)n([C@H](C)c5ccccc5F)c4c3)cn2)CCN1C(=O)CO` (single isomer, unassigned) [Example 86], the IC50 is 1000 to 10000 nM.

With `Cc1ccc(OC(F)F)c(Cn2c3cc(-c4cnn5c([C@@H](C)O)cnc5c4)ccc3c(=O)n2C)c1` (single isomer, unassigned) [Example 107], the IC50 is below 1000 nM. The figure for `Cc1ccc(OC(F)F)c(Cn2c3cc(-c4cnn5c([C@H](C)O)cnc5c4)ccc3c(=O)n2C)c1` (single isomer, unassigned) [Example 108] is 1000 to 10000 nM; for `Cc1cccc([C@H](C)n2c3cc(-c4cnc(N5CCN(C(=O)CO)[C@H](C)C5)nc4)ccc3c(=O)n2C)c1` (single isomer, unassigned) [Example 117] it is below 1000 nM; for `Cc1cccc([C@@H](C)n2c3cc(-c4cnc(N5CCN(C(=O)CO)[C@H](C)C5)nc4)ccc3c(=O)n2C)c1` (single isomer, unassigned) [Example 118] it is 1000 to 10000 nM. The result for `Cn1c(=O)c2ccc(-c3cnc(N4CCOCC4)nc3)cc2n1Cc1c(F)cccc1OC(F)F` [Example 1, 1-(2-(Difluoromethoxy)-6-fluorobenzyl)-2-methyl-6-(2-morpholinopyrimidin-5-yl)-1H-indazol-3(2H)-one] reads below 1000 nM. The figure for `Cn1c(=O)c2ccc(-c3cnc(N4CCOCC4)nc3)cc2n1Cc1cccc(F)c1` [Example 1.1] is 1000 to 10000 nM; for `Cn1c(=O)c2ccc(-c3cnc(N4CCOCC4)nc3)cc2n1Cc1cccc(OC(F)F)c1` [Example 1.2] it is 1000 to 10000 nM. As for `Cc1ccccc1Cn1c2cc(-c3cnc(N4CCOCC4)nc3)ccc2c(=O)n1C` [Example 1.3], the IC50 lay within 1000 to 10000 nM. The result for `Cn1c(=O)c2ccc(-c3cnc(N4CCOCC4)nc3)cc2n1CCc1ccccc1` [Example 1.4] reads above 10000 nM; that for `CC(c1ccccc1OC(F)F)n1c2cc(-c3cnc(N4CCOCC4)nc3)ccc2c(=O)n1C` (centres unmarked) [Example 1.5], 1000 to 10000 nM; that for `Cn1c(=O)c2ccc(-c3cnc(N4CCOCC4)nc3)cc2n1Cc1cc(F)ccc1OC(F)F` [Example 1.6], 1000 to 10000 nM. Turning to `Cn1c(=O)c2ccc(-c3cnc(N4CCOCC4)nc3)cc2n1C(=O)c1ccccc1OC(F)F` [Example 1.7], the IC50 was above 10000 nM. The figure for `Cn1c(=O)c2ccc(-c3cnc(N4CCOCC4)nc3)cc2n1C(=O)c1ccccc1` [Example 1.8] is above 10000 nM; for `Cc1cccc(Cn2c3cc(-c4cnc(N5CCOCC5)nc4)ccc3c(=O)n2C)c1` [Example 1.9] it is 1000 to 10000 nM. Regarding `Cn1c(=O)c2ccc(-c3cnc(N4CCOCC4)nc3)cc2n1Cc1ccccc1` [Example 1.10], the IC50 fell in the range of 1000 to 10000 nM.

On to `Cn1c(=O)c2ccc(-c3cnc(N4CCOCC4)nc3)cc2n1Cc1ccc(F)cc1` [Example 1.11], for which the IC50 is above 10000 nM. `Cn1c(=O)c2ccc(-c3cnc(N4CCOCC4)nc3)cc2n1Cc1ccccc1C#N` [Example 1.12]: the IC50 was in the range of 1000 to 10000 nM. As to `Cn1c(=O)c2ccc(-c3cnc(N4CCOCC4)nc3)cc2n1CCc1ccccc1F` [Example 1.13], the IC50 was above 10000 nM.

`Cn1c(=O)c2ccc(-c3cnc(N4CCOCC4)nc3)cc2n1Cc1ncccc1Cl` [Example 1.14]: the IC50 was 1000 to 10000 nM. Consider `Cn1c(=O)c2ccc(-c3cnc(N4CCOCC4)nc3)cc2n1Cc1ccccc1F` [Example 1.15], for which the IC50 was in the range of 1000 to 10000 nM. The result for `Cn1c(=O)c2ccc(-c3cnc(N4CCOCC4)nc3)cc2n1Cc1nc(Cl)ccc1Cl` [Example 1.16] reads 1000 to 10000 nM.
